Measured values published in patent US7829114B2, “Capsules containing aqueous fill compositions stabilized with derivatized cyclodextrin” (CyDex Pharmaceuticals, Inc., priority 2002, dated 2010).

Key:
[1] = Shell stability on exposure to aqueous fill composition (half-shell integrity test, H.S.I.T.); assay type: physicochemical; conditions: SAE-CD, PVP and water fill; hydrophilic fill-grade CARDINAL SGC
[2] = H.S.I.T. on starch capsule; assay type: physicochemical; conditions: for content in fill composition for an HSIT rating of at least 3: SAE-CD, PVP and water fill, VEGAGEL hard shell capsule
Source text: FIG. 3 depicts a chart of the relationship between concentration of SBE cyclodextrin and H.S.I.T. (HALF-SHELL integrity test) rating for HGC (hard gelatin capsule From […]), HGS (hard gelatin capsule from SHIONOGI), HPC (hard hydroxypropyl methylcellulose shell from […]), and HPS (hard hydroxypropyl methylcellulose shell from SHIONOGI), and SSS (soft starch shell […]). The stability obtained was dependent upon the composition of the capsule gel.
FIGS. 10a-10i depict ternary graphs correlating the concentration of SAE-CD, water and PVP in a fill composition to the H.S.I.T. rating of a soft shell capsule exposed to the fill composition. Aqueous fill solutions comprising differing amounts of PVP, SAE-CD and water were prepared. The stability tests were conducted as described below. The capsules described herein were used: SHIONOGI HGC (hard gelatin capsule) (FIG. 10A), […] HPMC hard shell capsule (FIG. 10b), SHIONOGI HPMC hard shell capsule (FIG. 10C), […] HGC (FIG. 10D), VEGAGEL hard shell capsule (FIG. 10E), hydrophilic fill-grade CARDINAL SGC (soft gelatin capsule) (FIG. 10f), lipophilic fill-grade CARDINAL SGC (FIG. 10g), hydrophilic fill-grade BANNER SGC (FIG. 10h), and lipophilic fill-grade BANNER SGC (FIG. 10i). No other shell-stabilizing material(s) was (were) included in the fill compositions evaluated. The results varied according to the capsule used. Stabilized aqueous fill composition-containing capsule formulations can be achieved with each capsule if one or more of the following fill compositions detailed below are used. • 1. […]

| Molecule | content in fill composition for an HSIT rating of at least 3 [1] | content in fill composition for an HSIT rating of at least 3 [2] | stability provided to capsules ([2]; SBE concentration of about ≧30% wt., soft starch capsules, FIG. 3) |
| --- | --- | --- | --- |
| O [Water] | ≦54% | ≦64% | – |
| sulfobutyl ether cyclodextrin [SAE-CD] | ≧6% | ≧6% | at least a one-week stability |
